Among the data in article PMC6273789, “Asperpyrone-Type Bis-Naphtho-γ-Pyrones with COX-2–Inhibitory Activities from Marine-Derived Fungus Aspergillus niger” (Molecules, 2016) are IC50 values, retold here.

The test addresses T1, COX-2 (Ovis aries, UniProt P79208).
T1 construct: gene PTGS2
T1 sequence (P79208 17-603): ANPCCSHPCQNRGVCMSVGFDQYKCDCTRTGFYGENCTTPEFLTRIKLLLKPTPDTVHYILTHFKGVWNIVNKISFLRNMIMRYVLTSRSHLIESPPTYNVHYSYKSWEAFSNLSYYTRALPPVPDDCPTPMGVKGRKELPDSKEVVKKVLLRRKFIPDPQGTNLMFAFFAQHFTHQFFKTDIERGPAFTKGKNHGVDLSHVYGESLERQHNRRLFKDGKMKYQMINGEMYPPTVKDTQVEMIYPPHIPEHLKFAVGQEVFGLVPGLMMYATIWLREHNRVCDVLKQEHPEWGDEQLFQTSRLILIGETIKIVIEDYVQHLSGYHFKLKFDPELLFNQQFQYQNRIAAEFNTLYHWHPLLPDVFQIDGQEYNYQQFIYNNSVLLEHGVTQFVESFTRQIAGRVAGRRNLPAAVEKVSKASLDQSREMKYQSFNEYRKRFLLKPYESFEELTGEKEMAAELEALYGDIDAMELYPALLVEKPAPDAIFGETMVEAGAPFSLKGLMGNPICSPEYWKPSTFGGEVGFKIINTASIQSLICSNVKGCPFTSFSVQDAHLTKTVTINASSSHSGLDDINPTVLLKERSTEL
Description: COX (ovine) inhibitor screening kit. It counts as biochemical.
The term IC50 denotes the point on the concentration scale where inhibition reaches its midpoint. High values mean a need for much substance, low ones inhibition by little substance. `COc1cc(OC)c2c(O)c3c(=O)cc(C)oc3c(-c3c(O)cc4cc5c(c(O)c4c3OC)C(=O)CC(C)(O)O5)c2c1` (stereo not drawn) [compound 3, aurasperone F] came in with a half-maximal inhibitory concentration (IC50) of 11.1 µM.
Next, `COc1cc(OC)c2c(O)c3c(c(-c4c(O)cc5cc6c(c(O)c5c4OC)C(=O)CC(C)(O)O6)c2c1)OC(C)(O)CC3=O` (stereo not drawn) [compound 6, aurasperone C]: 4.2 µM; `COc1cc(OC)c2c(O)c3c(=O)cc(C)oc3c(-c3c(O)cc4cc(O)c5c(=O)cc(C)oc5c4c3OC)c2c1` [compound 8, asperpyrone A]: 6.4 µM.
